Measurements reported in PubChem BioAssay AID2060488 (Molecular Pharmacology Branch, DTP, NCI, 2025).

Tested on: 966289-007-R4-J1-PDC complex spheroid viability
Assay: Anticancer human tumor 966289-007-R4-J1-PDC patient-derived pancreatic adenocarcinoma cell line growth inhibition [GQUAD]
Conditions: for IC50: curve of first compound; for viability, T/C: stronger effect = lower value
Procedure, shortened: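 Tumor cells were grown as complex spheroids with HUVEC endothelial cells and mesenchymal stem cells as stroma. G-quadruplex stabilizers were combined with targeted agents over half-log dilutions from near the clinical Cmax, or from 10 microM.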

[1] = second compound 0.0316 µM, first compound 0.0316 µM
[2] = second compound 0.0316 µM, first compound 0.1 µM
[3] = second compound 0.0316 µM, first compound 0.316 µM
[4] = second compound 0.0316 µM, first compound 1 µM
[5] = second compound 0.0316 µM, first compound 3.16 µM
[6] = second compound 0.0316 µM, first compound 10 µM
[7] = second compound 0.1 µM, first compound 0.0316 µM
[8] = second compound 0.1 µM, first compound 0.1 µM
[9] = second compound 0.1 µM, first compound 0.316 µM
[10] = second compound 0.1 µM, first compound 1 µM
[11] = second compound 0.1 µM, first compound 3.16 µM
[12] = second compound 0.1 µM, first compound 10 µM
[13] = second compound 0.316 µM, first compound 0.0316 µM
[14] = second compound 0.316 µM, first compound 0.1 µM
[15] = second compound 0.316 µM, first compound 0.316 µM
[16] = second compound 0.316 µM, first compound 1 µM
[17] = second compound 0.316 µM, first compound 3.16 µM
[18] = second compound 0.316 µM, first compound 10 µM
[19] = second compound 1 µM, first compound 0.0316 µM
[20] = second compound 1 µM, first compound 0.1 µM
[21] = second compound 1 µM, first compound 0.316 µM
[22] = second compound 1 µM, first compound 1 µM
[23] = second compound 1 µM, first compound 3.16 µM
[24] = second compound 1 µM, first compound 10 µM
[25] = second compound 3.16 µM, first compound 0.0316 µM
[26] = second compound 3.16 µM, first compound 0.1 µM
[27] = second compound 3.16 µM, first compound 0.316 µM
[28] = second compound 3.16 µM, first compound 1 µM
[29] = second compound 3.16 µM, first compound 3.16 µM
[30] = second compound 3.16 µM, first compound 10 µM
[31] = second compound 10 µM, first compound 0.0316 µM
[32] = second compound 10 µM, first compound 0.1 µM
[33] = second compound 10 µM, first compound 0.316 µM
[34] = second compound 10 µM, first compound 1 µM
[35] = second compound 10 µM, first compound 3.16 µM
[36] = second compound 10 µM, first compound 10 µM
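Note: spheroids exposed to the agents for seven days before readout.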
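Throughout, for viability, T/C: percent viability relative to DMSO vehicle control wells taken as 100%.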

Structure (SMILES): C#Cc1c(F)ccc2cc(O)cc(-c3ncc4c(N5CC6CCC(C5)N6)nc(OCC56CCCN5CC(F)C6)nc4c3F)c12 (centres undefined) + Cc1cnc(CNC(=O)c2c(=O)c3ccc(N4CCCN(C)CC4)nc3n3c2sc2ccccc23)cn1
- IC50 (second compound 0.0316 µM): > 10 µM
- IC50 (second compound 0.1 µM): < 0.0316 µM
- IC50 (second compound 0.316 µM): < 0.0316 µM
- IC50 (second compound 1 µM): < 0.0316 µM
- IC50 (second compound 3.16 µM): < 0.0316 µM
- IC50 (second compound 10 µM): < 0.0316 µM
- viability, T/C [1]: 114%
- viability, T/C [2]: 114%
- viability, T/C [3]: 111%
- viability, T/C [4]: 116%
- viability, T/C [5]: 122%
- viability, T/C [6]: 114%
- viability, T/C [7]: 38.4%
- viability, T/C [8]: 31.4%
- viability, T/C [9]: 34.2%
- viability, T/C [10]: 31.9%
- viability, T/C [11]: 40.5%
- viability, T/C [12]: 33.9%
- viability, T/C [13]: 10.9%
- viability, T/C [14]: 11.8%
- viability, T/C [15]: 13.7%
- viability, T/C [16]: 12.7%
- viability, T/C [17]: 11%
- viability, T/C [18]: 7.05%
- viability, T/C [19]: 6%
- viability, T/C [20]: 4.8%
- viability, T/C [21]: 5.85%
- viability, T/C [22]: 6.1%
- viability, T/C [23]: 6.94%
- viability, T/C [24]: 2.87%
- viability, T/C [25]: 4.4%
- viability, T/C [26]: 5.02%
- viability, T/C [27]: 5.21%
- viability, T/C [28]: 4.53%
- viability, T/C [29]: 4.58%
- viability, T/C [30]: 0.22%
- viability, T/C [31]: 0.1%
- viability, T/C [32]: 0.14%
- viability, T/C [33]: 0.14%
- viability, T/C [34]: 0.28%
- viability, T/C [35]: 0.16%
- viability, T/C [36]: 0.11%

Structure (SMILES): CC(=O)O[C@H]1C(=O)[C@@]2(C)[C@H]([C@H](OC(=O)c3ccccc3)[C@]3(O)C[C@H](OC(=O)[C@H](O)[C@@H](NC(=O)c4ccccc4)c4ccccc4)C(C)=C1C3(C)C)[C@]1(OC(C)=O)CO[C@@H]1C[C@@H]2O + Cc1cnc(CNC(=O)c2c(=O)c3ccc(N4CCCN(C)CC4)nc3n3c2sc2ccccc23)cn1
- IC50 (second compound 0.0316 µM): < 0.0316 µM
- IC50 (second compound 0.1 µM): < 0.0316 µM
- IC50 (second compound 0.316 µM): < 0.0316 µM
- IC50 (second compound 1 µM): < 0.0316 µM
- IC50 (second compound 3.16 µM): < 0.0316 µM
- IC50 (second compound 10 µM): < 0.0316 µM
- viability, T/C [1]: 3.55%
- viability, T/C [2]: 2.41%
- viability, T/C [3]: 2.38%
- viability, T/C [4]: 2.61%
- viability, T/C [5]: 4.35%
- viability, T/C [6]: 6.47%
- viability, T/C [7]: 3.6%
- viability, T/C [8]: 2.87%
- viability, T/C [9]: 3.34%
- viability, T/C [10]: 3.44%
- viability, T/C [11]: 4.23%
- viability, T/C [12]: 5.96%
- viability, T/C [13]: 6.14%
- viability, T/C [14]: 5.32%
- viability, T/C [15]: 4.53%
- viability, T/C [16]: 4.82%
- viability, T/C [17]: 6.03%
- viability, T/C [18]: 6.11%
- viability, T/C [19]: 4.85%
- viability, T/C [20]: 3.94%
- viability, T/C [21]: 4.08%
- viability, T/C [22]: 3.75%
- viability, T/C [23]: 5.24%
- viability, T/C [24]: 5.33%
- viability, T/C [25]: 3.56%
- viability, T/C [26]: 2.87%
- viability, T/C [27]: 3.36%
- viability, T/C [28]: 2.75%
- viability, T/C [29]: 3.86%
- viability, T/C [30]: 3.56%
- viability, T/C [31]: 0.08%
- viability, T/C [32]: 0.11%
- viability, T/C [33]: 0.1%
- viability, T/C [34]: 0.09%
- viability, T/C [35]: 0.1%
- viability, T/C [36]: 0.11%
